Patent publication US20260184702A1, “SYNTHESIS, PHARMACOLOGY AND USE OF NEW WATER-SOLUBLE AND SELECTIVE FMS-LIKE TYROSINE KINASE3 (FLT3) INHIBITORS” (Universität Regensburg, priority 2022, published 2026)
≈ marks a conversion by molar mass, not a printed value. Entries after “also recorded” stand apart in the source; their conditions may differ. Where a name gives a salt, the structure may show the parent alone.

Experiments:
human FLT3-ITD = target: T1, human FLT3-ITD (Homo sapiens, UniProt P36888); assay: Cellular FLT3-ITD phosphorylation assay in MEF-FLT3-ITD cells (sandwich-ELISA); assay type: cell-based; conditions: 90 min compound, FLT3-ligand stimulation, read-out: IC50 FLT3-ITD [nM] in phosphorylation assay
T1 sequence (P36888 1-993): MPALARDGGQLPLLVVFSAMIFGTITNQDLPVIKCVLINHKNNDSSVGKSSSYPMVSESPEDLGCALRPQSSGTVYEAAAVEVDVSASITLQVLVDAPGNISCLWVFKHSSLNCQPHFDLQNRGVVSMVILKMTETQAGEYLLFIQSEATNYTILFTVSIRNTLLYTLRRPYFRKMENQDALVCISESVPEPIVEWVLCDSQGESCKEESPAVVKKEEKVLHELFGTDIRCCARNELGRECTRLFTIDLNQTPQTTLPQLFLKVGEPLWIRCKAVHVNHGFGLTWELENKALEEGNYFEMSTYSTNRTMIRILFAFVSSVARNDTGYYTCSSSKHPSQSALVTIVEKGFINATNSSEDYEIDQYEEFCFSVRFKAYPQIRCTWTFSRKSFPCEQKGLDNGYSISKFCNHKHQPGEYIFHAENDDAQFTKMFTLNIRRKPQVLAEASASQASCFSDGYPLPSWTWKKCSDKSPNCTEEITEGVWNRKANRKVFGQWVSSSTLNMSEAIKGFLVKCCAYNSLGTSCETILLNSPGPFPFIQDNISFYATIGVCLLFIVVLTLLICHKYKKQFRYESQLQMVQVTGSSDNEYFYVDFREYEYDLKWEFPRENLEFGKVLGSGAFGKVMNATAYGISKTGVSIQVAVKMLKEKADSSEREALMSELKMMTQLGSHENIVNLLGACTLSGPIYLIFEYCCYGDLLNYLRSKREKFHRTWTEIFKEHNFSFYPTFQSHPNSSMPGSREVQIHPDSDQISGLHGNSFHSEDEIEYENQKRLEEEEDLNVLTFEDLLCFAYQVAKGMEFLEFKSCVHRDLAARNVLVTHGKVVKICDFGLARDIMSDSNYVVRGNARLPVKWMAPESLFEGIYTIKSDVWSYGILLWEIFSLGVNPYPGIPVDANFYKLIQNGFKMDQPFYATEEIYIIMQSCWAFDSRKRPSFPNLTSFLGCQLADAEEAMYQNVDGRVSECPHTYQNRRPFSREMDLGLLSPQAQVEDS
Method: In the cellular FLT3-ITD phosphorylation assay the murine embryonal fibroblast cell line (MEF) was used, which expresses a high level of exogenously introduced full-length human FLT3-ITD. Stimulation of these cells with human FLT3-Ligand results in receptor tyrosine autophosphorylation. MEF-FLT3-ITD cells were plated in DMEM supplemented with […] in multiwell cell culture plates. After serum-starvation overnight cells were incubated with compounds (90 min at 37° C.) in serum-free medium. […] For stimulation, cells were treated with 50 ng/ml FLT3-ligand for 5 min at room temperature. After cell lysis quantification of receptor autophosphorylation was assessed in 96 well plates via sandwich-ELISA using a kinase specific capture antibody and an antiphosphotyrosine detection antibody.

c-KIT = target: T2, c-KIT (Homo sapiens, UniProt P10721); assay: Cellular c-KIT phosphorylation assay in Mo7e cells (sandwich-ELISA); assay type: cell-based; conditions: Mo7e cells, 90 min compound, SCF stimulation; read-out: IC50 [nM] inhibition of c-KIT in phosphorylation assay
T2 construct: expresses endogenously a high level of wild-type c-KIT; endogenous in cells; host or cells: Mo7e (human acute megakaryoblastic leukemia)
Method: In the cellular c-KIT phosphorylation assay the human acute megakaryoblastic leukemia cell line Mo7e was used, which expresses endogenously a high level of wild-type c-KIT. Stimulation of these cells with human stem cell factor (SCF) results in receptor tyrosine autophosphorylation. Mo7e cells were plated in RPMI supplemented with 20% FCS and 10 ng/ml GM-CSF in multiwell cell culture plates. After serum- and growth factor-starvation overnight cells were incubated with compounds (90 min at 37° C.) in serum-free medium. […] For stimulation, cells were treated with 100 ng/ml SCF for 3 min at room temperature. After cell lysis quantification of receptor autophosphorylation was assessed in 96 well plates via sandwich-ELISA using a kinase specific capture antibody and an anti-phosphotyrosine detection antibody.

[1] = tested on: MONO-MAC-6 (acute monocytic leukemia); assay: CellTiter-Blue Cell Viability Assay, MONO-MAC-6; assay type: cell-based; conditions: Homo sapiens
Method: (§1) EOL-1 (acute myeloid eosinophilic leukemia), MOLM-13 (acute myeloid leukemia), MONO-MAC-1 (acute monocytic leukemia), and MONO-MVAC-6 (acute monocytic leukemia). In vitro screening was performed by Charles River using the CellTiter-Blue® Cell Viability Assay.

[2] = Solubility test by UV-Vis spectroscopy of saturated solutions; assay type: physicochemical; conditions: saturated solution; for Solubility Water: ultrapure water
Method: All UV-Vis measurements were carried out with an Agilent Cary 60 UV-Vis 2.00 between 800-200 nm. The absorbance was measured with a scan rate of 300.0 nm/min, a data interval of 0.50 nm and an UV-Vis Average Time of 0.10 s. For all measurements a cuvette with 10 mm light path was used. A calibration curve was plotted from several different concentrations and the solubility of the respective compound was determined by measuring the absorbance of a diluted saturated solution. As a blank curve a mixture of ultrapure water and ethanol in a ratio of 1:1 or 5:95 was recorded. For the calibration curve a 100 μM or a 10 μM solution of the compound in an ultrapure water:ethanol (1:1) or (5:95)-mixture was prepared and diluted to obtain at least 6 concentrations. […] The supernatant was taken using a syringe and filtered through a syringe filter (RC Membrane). The saturated solution was diluted with ultrapure water and ethanol to obtain an appropriate concentration in a water:ethanol (1:1) or (5:95)-mixture. The long wave absorbance maximum was used for determination of the solubility (mean values, determination in triplicate). […] By plotting the concentration of the solution against the absorbance values at the previously determined wavelength maximum a calibration curve was obtained (FIG. 1B).

[3] = tested on: EOL-1 (acute myeloid eosinophilic leukemia); assay: CellTiter-Blue Cell Viability Assay, EOL-1; assay type: cell-based; conditions: Homo sapiens, EOL1
Method: as §1

[4] = tested on: MONO-MAC-1 (acute monocytic leukemia); assay: CellTiter-Blue Cell Viability Assay, MONO-MAC-1; assay type: cell-based
Method: as §1

[5] = tested on: four hematological cell lines; assay: CellTiter-Blue Cell Viability Assay, all four hematological cell lines; assay type: cell-based; conditions: geometric mean over EOL-1, MOLM-13, MONO-MAC-1, MONO-MAC-6; read-out: IC50 [μM] Geomean
Method: as §1

[6] = tested on: MOLM-13 (acute myeloid leukemia); assay: CellTiter-Blue Cell Viability Assay, MOLM-13; assay type: cell-based; conditions: Homo sapiens
Method: as §1

[7] = Solubility test by UV-Vis spectroscopy of saturated solutions; assay type: physicochemical; conditions: solvent DMSO
[8] = tested on: subcutaneous MV4-11 CDX model; assay: In vivo efficacy study in subcutaneous MV4-11 CDX model in NOD/SCID mice; conditions: for number of living subjects, day of study 5 / number of living subjects, day of study 6 / number of living subjects, day of study 8 / number of living subjects, day of study 13 / number of living subjects, day of study 26 / number of living subjects, day of study 36: 5 mice
[9] = In vivo MTD study in non-tumor bearing NOD/SCID mice
Method: . Group information and dosing details can be seen in the following Table 7.
. Acclimatization occurred for at least 14 days. […] Dosing of 34c was done as a solution in deionized water, initiated on day 1 and continued for 5 days. One mouse in the 50 mg/kg po group and one in the 75 mg/kg po group lost more weight than 10% in the dosing phase of the study. The weight loss in the 50 mg/kg group was observed after receiving three doses of 34c and after receiving four doses of 34c in the […]. A dosing break was made until the end of dosing for both mice and after a couple of days during the 10-day observation period both mice regained their weight. The body weight was measured daily for all three oral treatment groups for the 5 days of dosing and the following 10-day observational period. The mean relative body weight of the oral treatment group can be seen in FIG. 2. […] Since this observation was made only after dosing, it can be considered it was not caused by the compound.

T2 sequence (P10721 26-976): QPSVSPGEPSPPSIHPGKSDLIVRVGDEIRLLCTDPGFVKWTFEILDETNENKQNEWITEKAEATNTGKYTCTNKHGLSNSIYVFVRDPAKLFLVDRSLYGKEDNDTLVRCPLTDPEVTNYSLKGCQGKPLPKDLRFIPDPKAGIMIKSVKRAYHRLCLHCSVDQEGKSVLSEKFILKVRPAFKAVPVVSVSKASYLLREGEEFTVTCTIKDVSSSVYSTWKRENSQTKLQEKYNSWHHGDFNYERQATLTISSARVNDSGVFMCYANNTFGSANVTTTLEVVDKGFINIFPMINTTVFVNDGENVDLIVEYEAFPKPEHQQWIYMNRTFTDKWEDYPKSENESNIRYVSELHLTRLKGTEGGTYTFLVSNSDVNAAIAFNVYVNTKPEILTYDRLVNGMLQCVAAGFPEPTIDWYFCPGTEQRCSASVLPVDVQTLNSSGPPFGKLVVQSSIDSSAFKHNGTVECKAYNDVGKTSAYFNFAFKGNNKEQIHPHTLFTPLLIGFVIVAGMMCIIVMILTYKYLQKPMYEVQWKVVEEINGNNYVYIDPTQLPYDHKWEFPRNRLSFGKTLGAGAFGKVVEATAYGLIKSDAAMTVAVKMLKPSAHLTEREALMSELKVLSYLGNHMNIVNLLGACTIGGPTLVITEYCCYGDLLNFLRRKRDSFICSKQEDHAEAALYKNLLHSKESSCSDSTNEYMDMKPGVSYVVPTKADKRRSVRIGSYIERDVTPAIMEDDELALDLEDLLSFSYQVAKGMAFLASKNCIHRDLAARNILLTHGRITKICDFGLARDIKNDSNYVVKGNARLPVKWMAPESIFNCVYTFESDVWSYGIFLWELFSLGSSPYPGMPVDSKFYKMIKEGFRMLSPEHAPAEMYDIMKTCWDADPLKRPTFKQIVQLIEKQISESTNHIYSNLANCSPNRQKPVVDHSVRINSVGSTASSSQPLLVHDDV

Compound CN1CCN(Cc2c(O)ccc3[nH]c(C(=O)c4cc5cc(NC(=O)Nc6cc(C(C)(C)C)on6)ccc5o4)cc23)CC1 [Compound 33b, 1-(5-(tert-Butyl)isoxazol-3-yl)-3-(2-(5-hydroxy-4-((4-methylpiperazin-1-yl)methyl)-1H-indole-2-carbonyl)benzofuran-5-yl)urea bis(2,2,2-trifluoroacetate)] has an IC50 (human FLT3-ITD) of 6.9 nM, an IC50 (c-KIT) of 3.2 nM and an IC50 [1] of 0.00431 µM. For the same compound, the “Solubility Ethanol” value ([2]; bis(2,2,2-trifluoroacetate)) was 3.63 mg/mL (≈ 6.36 mM), the IC50 [3] was 0.05 nM and the IC50 [4] was 0.1 µM. The IC50 [5] was 0.00223 µM and the IC50 [6] was 0.00109 µM.
CN(C)Cc1c(O)ccc2[nH]c(C(=O)c3cc4cc(NC(=O)Nc5cc(C(C)(C)C)on5)ccc4o3)cc12 [Compound 34b, 1-(5-tert-Butylisoxazol-3-yl)-3-(2-(4-((dimethylamino)methyl)-5-hydroxy-1H-indole-2-carbonyl)benzofuran-5-yl)urea 2,2,2-trifluoroacetate] showed an IC50 (human FLT3-ITD) of 3.1 nM, an IC50 (c-KIT) of 1.8 nM and an IC50 [1] of 0.00065 µM. For the same compound, the “Solubility Ethanol” value ([2]; 2,2,2-trifluoroacetate) was 5.94 mg/mL (≈ 11.5 mM), the “Solubility Water” value ([2]; 2,2,2-trifluoroacetate) was less than 0.1 mg/mL and the IC50 [3] was 0.02 nM. It also gave an IC50 [4] of 0.1 µM, an IC50 [5] of 0.00074 µM and an IC50 [6] of 0.0002 µM. For the same compound, the “Solubility DMSO” value [7] was “Soluble”.
In the case of CN(C)Cc1c(O)ccc2[nH]c(C(=O)c3cc4cc(NC(=O)Nc5cc(C(C)(C)C)on5)ccc4o3)cc12 [Compound 34c, 1-(5-(tert-Butyl)isoxazol-3-yl)-3-(2-(4-(dimethylamino)methyl)-5-hydroxy-1H-indole-2-carbonyl)benzofuran-5-yl)urea Hydrochloride], the “first death (day of study)” value ([8]; 20 mg/kg po daily 5 days) is reported as 9 days, the “study day after which 1 mouse had to be sacrificed” value ([8]; 20 mg/kg po daily 5 days (treatment group 2)) is reported as 20 days and the “number of living subjects, day of study 5” value ([8]; 20 mg/kg po daily 5 days) is reported as 5. The “number of living subjects, day of study 6” value ([8]; 20 mg/kg po daily 5 days) was 5, the “number of living subjects, day of study 8” value ([8]; 20 mg/kg po daily 5 days) was 5 and the “number of living subjects, day of study 13” value ([8]; 20 mg/kg po daily 5 days) was 4. For the same compound, the “number of living subjects, day of study 26” value ([8]; 20 mg/kg po daily 5 days) was 4, the “number of living subjects, day of study 36” value ([8]; 20 mg/kg po daily 5 days) was 0 and the “relative tumor volume, compared with reference compounds” value ([8]; 20 mg/kg po daily 5 days, Midostaurin 50 mg/kg, Hydrochloride) was “better results regarding tumor volume measurements than Midostaurin; also recorded: higher efficiency than midostaurin”. The “number of living subjects, day of study 5” value ([8]; 50 mg/kg po daily 5 days) was 5, the “number of living subjects, day of study 6” value ([8]; 50 mg/kg po daily 5 days) was 5 and the “number of living subjects, day of study 8” value ([8]; 50 mg/kg po daily 5 days) was 5. The “number of living subjects, day of study 13” value ([8]; 50 mg/kg po daily 5 days) was 5, the “number of living subjects, day of study 26” value ([8]; 50 mg/kg po daily 5 days) was 5 and the “number of living subjects, day of study 36” value ([8]; 50 mg/kg po daily 5 days) was 5. For the same compound, the “deaths until day 36” value ([8]; 50 mg/kg po daily 5 days, Hydrochloride) was “No deaths were observed; also recorded: no deaths were noted”, the “relative tumor volume, compared with reference compounds” value ([8]; 50 mg/kg po daily 5 days, references 50 mg/kg, Hydrochloride) was “similarly active as Quizartinib; also recorded: much more active than Midostaurin; also recorded: significantly increased efficiency of 34c compared to midostaurin; also recorded: comparable to the efficiency of quizartinib at the same dose” and the “efficacy and tolerability in terms of overall survival / death counts” value ([8]; 34c 20 and 50 mg/kg, references 50 mg/kg, po daily 5 days, Hydrochloride) was “better tolerated; also recorded: significantly better efficacy and tolerability in terms of overall survival than midostaurin; also recorded: significantly better efficiency and tolerability (in terms of overall survival) than quizartinib”. For the same compound, the “relative body weight loss” value ([8]; po daily 5 days, 34c 20 and 50 mg/kg, Midostaurin and Quizartinib 50 mg/kg) was “less relative body weight loss”, the “Solubility Ethanol” value ([2]; Hydrochloride) was 2.38 mg/mL and the “Solubility Water” value ([2]; Hydrochloride) was 5.77 mg/mL. The clinical signs ([9]; 20 mg/kg and 50 mg/kg po treatment groups) was “no clinical signs observed”, the clinical signs ([9]; 75 mg/kg po, the mouse which lost weight, noticed only after dosing, considered not caused by the compound) was “swelling of the right hind limb and foot” and the “possible (tolerated) dose according to tolerability study” value ([9]; female, NOD/SCID, mouse, in vivo, po, 5 days) was “up to 75 mg/kg”. For the same compound, the “body weight loss in the dosing phase” value ([9]; one mouse in the 50 mg/kg po group and one in the 75 mg/kg po group, daily, 5 days) was greater than 10%.
